Test results as given in ChEMBL document CHEMBL4837216, “Polymyxin B-inspired non-hemolytic tyrocidine A analogues with significantly enhanced activity against gram-negative bacteria: How cationicity impacts cell specificity and antibacterial mechanism” (Eur J Med Chem, 2021).
Values after ≈ are worked out from the molar mass of the structure shown. Active and inactive are the calls of the source. The rule behind the calls is not given here.

Experiments:
Cell membrane [1] = test: Induction of cytoplasmic membrane permeabilization in Staphylococcus aureus at 0.06 to 8 times MIC measured for 60 mins by propidium iodide dye based fluorescence assay; assay type: subcellular
Escherichia coli [2] = test: Antibacterial activity against Escherichia coli ATCC 8739 infected in C57BL/6 mouse peritonitis sepsis model assessed as bacterial load in kidney at 10 mg/kg, ip administered for 12 hrs (reference value: 5.15 +/-0.4 logCFU/gm); assay type: functional
Cell membrane [3] = test: Induction of cytoplasmic membrane permeabilization in Escherichia coli at 0.06 to 8 times MIC measured for 60 mins by propidium iodide dye based fluorescence assay
Cell membrane [4] = test: Induction of cell membrane disruption in Staphylococcus aureus assessed as cell morphological damage at 20 uM incubated for 1 hr by scanning electron microscopy; assay type: subcellular
Cell membrane [5] = test: Induction of cytoplasmic membrane permeabilization in Staphylococcus aureus assessed as increase in red fluorescence intensity at 2 times MIC measured after 60 mins by fluorescence microscopy
Lipopolysaccharide (LPS) = test: Displacement of dansyl-polymyxinB from LPS (unknown origin) assessed as decrease in fluorescence intensity by fluorescence spectrophotometric analysis
Cell membrane [6] = test: Induction of cytoplasmic membrane permeabilization in Escherichia coli at 0.06 to 8 times MIC measured for 10 mins by propidium iodide dye based fluorescence assay
Escherichia coli [7] = test: Antibacterial activity against Escherichia coli ATCC 8739 infected in C57BL/6 mouse peritonitis sepsis model assessed as glomerulus and renal tubules with normal shape in kidney at 10 mg/kg, ip administered for 12 hrs by Hematoxylin-Eosin staining based microscopic analysis; assay type: functional, organism-based
Lipid bilayer [8] = test: Binding affinity to eukaryotic cell membrane mimic DOPC/Cholesterol (3:1) large unilamellar vesicles assessed as calcein leakage measured after 30 mins fluorescence based assay
Lipid bilayer [9] = test: Binding affinity to bacterial inner membrane mimic DOPE/DOPG (3:1) large unilamellar vesicles assessed as calcein leakage measured after 30 mins fluorescence based assay
Escherichia coli [10] = test: Bactericidal activity against Escherichia coli assessed as decrease in cell survival at 1XMIC measured after 24 hrs by colony counting assay; assay type: functional, organism-based
Escherichia coli [11] = test: Antibacterial activity against Escherichia coli ATCC 8739 infected in C57BL/6 mouse peritonitis sepsis model assessed as bacterial load in spleen at 10 mg/kg, ip administered for 12 hrs (reference value: 6.01 +/-0.59 logCFU/gm); assay type: functional
Escherichia coli [12] = test: Antibacterial activity against Escherichia coli ATCC 8739 infected in C57BL/6 mouse peritonitis sepsis model assessed as reduction in inflammatory cell infiltration in liver at 10 mg/kg, ip administered for 12 hrs by Hematoxylin-Eosin staining based microscopic analysis; assay type: functional, organism-based
Escherichia coli [13] = test: Antibacterial activity against Escherichia coli ATCC 8739 infected in C57BL/6 mouse peritonitis sepsis model assessed as reduction in bleeding with normal shaped alveoli at 10 mg/kg, ip administered for 12 hrs by Hematoxylin-Eosin staining based microscopic analysis; assay type: functional, organism-based
Cell membrane [14] = test: Induction of cell membrane disruption in Escherichia coli assessed as increase in fluorescence intensity at 2 times MIC measured after 60 mins by PI staining based flow cytometric analysis (reference value: 0.1%); assay type: subcellular
Staphylococcus aureus [15] = test: Bactericidal activity against Staphylococcus aureus assessed as decrease in cell survival at 1XMIC measured after 24 hrs by colony counting assay; assay type: functional, organism-based
Cell membrane [16] = test: Induction of cytoplasmic membrane permeabilization in Staphylococcus aureus at 0.06 to 8 times MIC measured for 10 mins by propidium iodide dye based fluorescence assay
Acinetobacter baumannii = test: Antibacterial activity against Acinetobacter baumannii ATCC 19606 assessed as inhibition of bacterial growth measured after 24 hrs by turbidity based analysis; assay type: functional; settings: ATCC 19606 = CIP 70.34 = JCM 6841
Cell membrane [17] = test: Induction of cytoplasmic membrane permeabilization in Escherichia coli assessed as increase in red fluorescence intensity at 2 times MIC measured after 60 mins by fluorescence microscopy; assay type: subcellular
Staphylococcus aureus [18] = test: Antibacterial activity against Staphylococcus aureus ATCC 6538 assessed as inhibition of bacterial growth measured after 17 passages by turbidity based analysis; assay type: functional, organism-based
Staphylococcus aureus [19] = test: Antibacterial activity against methicillin resistant Staphylococcus aureus assessed as inhibition of bacterial growth measured after 24 hrs by turbidity based analysis; assay type: functional
Escherichia coli [20] = test: Antibacterial activity against Escherichia coli ATCC 8739 infected in C57BL/6 mouse peritonitis sepsis model assessed as reduction in inflammatory cell infiltration in spleen at 10 mg/kg, ip administered for 12 hrs by Hematoxylin-Eosin staining based microscopic analysis; assay type: functional, organism-based
[21] = Stability of the compound in human serum at 100 uM measured after 24 hrs by RP-HPLC analysis; assay type: ADME, cell-free
Cell membrane [22] = test: Induction of cytoplasmic membrane depolarization in Escherichia coli assessed as increase in fluorescence intensity a 1XMIC by DiSC3-5 dye based fluorescence method
Escherichia coli [23] = test: Antibacterial activity against Escherichia coli ATCC 8739 infected in C57BL/6 mouse peritonitis sepsis model assessed as bacterial load in lung at 10 mg/kg, ip administered for 12 hrs (reference value: 5.47 +/-0.73 logCFU/gm); assay type: functional
Escherichia coli [24] = test: Antibacterial activity against Escherichia coli ATCC 8739 infected in C57BL/6 mouse peritonitis sepsis model assessed as reduction in inflammatory cell infiltration in kidney at 10 mg/kg, ip administered for 12 hrs by Hematoxylin-Eosin staining based microscopic analysis; assay type: functional, organism-based
Staphylococcus aureus [25] = test: Antibacterial activity against Staphylococcus aureus ATCC 6538 assessed as inhibition of bacterial growth measured after 24 hrs by turbidity based analysis; assay type: functional
Escherichia coli [26] = test: Antibacterial activity against Escherichia coli ATCC 8739 assessed as inhibition of bacterial growth measured after 24 hrs by turbidity based analysis; assay type: functional
Escherichia coli [27] = test: Antibacterial activity against Escherichia coli ATCC 8739 infected in C57BL/6 mouse peritonitis sepsis model assessed as reduction in inflammatory cell infiltration in lung at 10 mg/kg, ip administered for 12 hrs by Hematoxylin-Eosin staining based microscopic analysis; assay type: functional, organism-based
Pseudomonas aeruginosa = test: Antibacterial activity against Pseudomonas aeruginosa ATCC 27853 assessed as inhibition of bacterial growth measured after 24 hrs by turbidity based analysis; assay type: functional
Escherichia coli [28] = test: Antibacterial activity against Escherichia coli ATCC 8739 assessed as inhibition of bacterial growth measured after 17 passages by turbidity based analysis; assay type: functional, organism-based
Escherichia coli [29] = test: Antibacterial activity against Escherichia coli ATCC 8739 infected in C57BL/6 mouse peritonitis sepsis model assessed as clear boundaries between hepatic cell cords in liver at 10 mg/kg, ip administered for 12 hrs by Hematoxylin-Eosin staining based microscopic analysis; assay type: functional, organism-based
Escherichia coli [30] = test: Antibacterial activity against Escherichia coli ATCC 8739 infected in C57BL/6 mouse peritonitis sepsis model assessed as bacterial load in liver at 10 mg/kg, ip administered for 12 hrs (reference value: 5.7 +/-0.35 logCFU/gm); assay type: functional
L02 = test: Cytotoxicity against human L02 cells assessed as reduction in cell viability at >10 uM incubated for 24 hrs by CCK8 assay; assay type: cell-based; settings: l02, 24 h
[31] = Hemolytic activity in human RBC assessed as induction of cell lysis measured after 30 mins by microtiter plate method; assay type: cell-based, Erythrocyte; settings: human red blood cells (erythrocytes)
Enterococcus faecalis = test: Antibacterial activity against Enterococcus faecalis ATCC 29212 assessed as inhibition of bacterial growth measured after 24 hrs by turbidity based analysis; assay type: functional
Cell membrane [32] = test: Induction of cell membrane disruption in Escherichia coli assessed as increase in fluorescence intensity at 4 times MIC measured after 60 mins by PI staining based flow cytometric analysis (reference value: 0.1%); assay type: subcellular
Cell membrane [33] = test: Induction of cytoplasmic membrane depolarization in Staphylococcus aureus assessed as increase in fluorescence intensity a 1XMIC by DiSC3-5 dye based fluorescence method
Cell membrane [34] = test: Induction of cell membrane disruption in Escherichia coli assessed as wrinkled cells at 20 uM incubated for 1 hr by scanning electron microscopy
Cell membrane [35] = test: Induction of cell membrane disruption in Escherichia coli assessed as increase in fluorescence intensity at 1 times MIC measured after 60 mins by PI staining based flow cytometric analysis (reference value: 0.1%); assay type: subcellular
Cell membrane [36] = test: Induction of outer membrane permeabilization to NPN in Escherichia coli ATCC 8739 cells assessed as increase in fluorescence intensity by NPN-probe based fluorescence spectrophotometric analysis; assay type: subcellular
Escherichia coli [37] = test: Antibacterial activity against Escherichia coli ATCC 8739 infected in C57BL/6 mouse peritonitis sepsis model assessed as clear boundaries between white and red pulps in spleen at 10 mg/kg, ip administered for 12 hrs by Hematoxylin-Eosin staining based microscopic analysis; assay type: functional, organism-based

For `CC(C)C[C@@H]1NC(=O)[C@H](CCCN)NC(=O)[C@H](CCCN)NC(=O)[C@H](CCCN)NC(=O)[C@H](CCCN)NC(=O)[C@H](CCCN)NC(=O)[C@@H](Cc2ccccc2)NC(=O)[C@H](Cc2ccccc2)NC(=O)[C@@H]2CCCN2C(=O)[C@@H](Cc2ccccc2)NC1=O`, the Activity (Cell membrane [1]) was “Active”, the Activity (Escherichia coli [2]) was 3.48 log10CFU/g and the Activity (Cell membrane [3]) was “Active”. For the same compound, the Activity (Cell membrane [4]) was “Active”, the Activity (Cell membrane [5]) was “Active” and the Activity (Lipopolysaccharide (LPS)) was “Active”. For the same compound, the Activity (Cell membrane [6]) was “inactive”, the Activity (Escherichia coli [7]) was “Active” and the Activity (Lipid bilayer [8]) was “inactive”. The Activity (Lipid bilayer [9]) was “Active”, the Activity (Escherichia coli [10]) was “Active” and the Activity (Escherichia coli [11]) was 4.25 log10CFU/g. The Activity (Escherichia coli [12]) was “Active”, the Activity (Escherichia coli [13]) was “Active” and the Activity (Cell membrane [14]) was 78.3%. For the same compound, the Activity (Staphylococcus aureus [15]) was “Active”, the Activity (Cell membrane [16]) was “inactive” and the MIC (Acinetobacter baumannii) was 10 µM (≈ 12.2 µg/mL). The Activity (Cell membrane [17]) was “Active”, the Activity (Staphylococcus aureus [18]) was “Active” and the MIC (Staphylococcus aureus [19]) was 10 µM (≈ 12.2 µg/mL). The Activity (Escherichia coli [20]) was “Active”, the Stabilty [21] was “Stable” and the Activity (Cell membrane [22]) was “Active”. For the same compound, the Activity (Escherichia coli [23]) was 3.15 log10CFU/g, the Activity (Escherichia coli [24]) was “Active” and the MIC (Staphylococcus aureus [25]) was 5 µM (≈ 6.11 µg/mL). The MIC (Escherichia coli [26]) was 5 µM (≈ 6.11 µg/mL), the Activity (Escherichia coli [27]) was “Active” and the MIC (Pseudomonas aeruginosa) was 10 µM (≈ 12.2 µg/mL). The Activity (Escherichia coli [28]) was “Active”, the Activity (Escherichia coli [29]) was “Active” and the Activity (Escherichia coli [30]) was 2.49 log10CFU/g. The Activity (L02) was “Toxic”, the HC50 at 0.5 h [31] was over 400 µM and the MIC (Enterococcus faecalis) was 5 µM (≈ 6.11 µg/mL). For the same compound, the Activity (Cell membrane [32]) was 91.8%, the Activity (Cell membrane [33]) was “Active” and the Activity (Cell membrane [34]) was “Active”. For the same compound, the Activity (Cell membrane [35]) was 42.7%, the Activity (Cell membrane [36]) was “Active” and the Activity (Escherichia coli [37]) was “Active”.
